Results from patent EP0346929B1, “Treating agent for Raynaud's disease” (DAIICHI PHARMACEUTICAL CO., LTD., priority 1988, dated 1989).
Counter-ions that a name gives are not always drawn.

Tested on: Laurate-Induced Peripheral Arterial Occlusive Diseases in Rats
Experiment: Effect on progression of laurate-induced peripheral arterial occlusive diseases in rats
Assay type: in vivo
Protocol: Effect on Progression of Laurate-Induced Peripheral Arterial Occlusive Diseases in Rats
Male Wister-Imamichi rats weighing from 370 to 422 g (purchased from Dobutsu Hanshoku Kenkyukai) were used as test animals.
Rats were anesthetized with pentobarbital (50 mg/kg, i.p.), and the right femoral artery was exposed by surgical incision. 0.1 mℓ of a sodium laurate solution (1 mg of lauric acid/mℓ-saline, pH=8.0) was injected to the right femoral artery, haemostasis was secured by application of a surgical binding "Alonalpha" (a trade name, produced by Toa Gosei Kagaku Co.) to the punctured site of the artery, and the incision was closed with the surgical binding. The animals were then fed ad lib.
The degree of the lesions was graded to 0 - IV, 4 days after the operation for gangrene and 6 days after the operation for mummification or falling off as follows: normal apperance, 0; the affected region was limited to the nail parts, I; to the fingers, II; to the whole paw, III; and extended to the lower leg, IV.
As a test compound, 6-(1-imidazolylmethyl)-5,6,7,8-tetrahydronaphthalene-2-carboxylic acid hydrochloride 1/2 hydrate (hereinafter referred to as Compound A) was dissolved in physiological saline and administered to the left femoral vein at a dose of 3 mg/5 mℓ/kg 5 minutes before the laurate injection to the femoral artery. The effect of the Compound A on suppression of the lesions were examined. The animals in control group were injected with 5 mℓ/kg of saline alone in place of the Compound A. The results obtained are shown in Table 1 below.

SMILES: O=C(O)c1ccc2c(c1)CCC(Cn1ccnc1)C2 (centres unmarked) [Compound A, 6-(1-imidazolylmethyl)-5,6,7,8-tetrahydronaphthalene-2-carboxylic acid hydrochloride 1/2 hydrate]
- Number of Animals Suffering From: Gangrene After 4 Days, grade 0 (grade 0 = normal apperance, 3 mg/5 mℓ/kg into left femoral vein 5 minutes before laurate injection, 4 days after operation): 2
- Number of Animals Suffering From: Mummification or Falling Off After 6 Days, grade 0 (grade 0 = normal apperance, 3 mg/5 mℓ/kg into left femoral vein 5 minutes before laurate injection, 6 days after operation): 2
- Number of Animals Suffering From: Gangrene After 4 Days, grade I (grade I = affected region limited to the nail parts, 3 mg/5 mℓ/kg into left femoral vein 5 minutes before laurate injection, 4 days after operation): 3
- Number of Animals Suffering From: Mummification or Falling Off After 6 Days, grade I (grade I = affected region limited to the nail parts, 3 mg/5 mℓ/kg into left femoral vein 5 minutes before laurate injection, 6 days after operation): 1
- Number of Animals Suffering From: Gangrene After 4 Days, grade II (grade II = affected region limited to the fingers, 3 mg/5 mℓ/kg into left femoral vein 5 minutes before laurate injection, 4 days after operation): 2
- Number of Animals Suffering From: Mummification or Falling Off After 6 Days, grade II (grade II = affected region limited to the fingers, 3 mg/5 mℓ/kg into left femoral vein 5 minutes before laurate injection, 6 days after operation): 3
- Number of Animals Suffering From: Mummification or Falling Off After 6 Days, grade III (grade III = affected region limited to the whole paw, 3 mg/5 mℓ/kg into left femoral vein 5 minutes before laurate injection, 6 days after operation): 1
- grade of lesions (intravenous injection of 3 mg/kg, compared with control group): reduced the grade of lesions
